Data reported in ChEMBL document CHEMBL4823254, “Tetrahydroquinoline-Capped Histone Deacetylase 6 Inhibitor SW-101 Ameliorates Pathological Phenotypes in a Charcot-Marie-Tooth Type 2A Mouse Model” (J Med Chem, 2021).
Blank lines part the entries; values can stand above or below the molecule they belong to.

Legend:
[1] = target: Histone deacetylase 1 (Homo sapiens, UniProt Q13547); assay: Inhibition of full length recombinant C-terminal FLAG-His-tagged human HDAC1 expressed in baculovirus infected Sf21 insect cells using RHK-K(Ac)-AMC peptide as substrate measured after 60 mins by fluorimetry analysis
Histone deacetylase 1, sequence (Q13547 whole entry): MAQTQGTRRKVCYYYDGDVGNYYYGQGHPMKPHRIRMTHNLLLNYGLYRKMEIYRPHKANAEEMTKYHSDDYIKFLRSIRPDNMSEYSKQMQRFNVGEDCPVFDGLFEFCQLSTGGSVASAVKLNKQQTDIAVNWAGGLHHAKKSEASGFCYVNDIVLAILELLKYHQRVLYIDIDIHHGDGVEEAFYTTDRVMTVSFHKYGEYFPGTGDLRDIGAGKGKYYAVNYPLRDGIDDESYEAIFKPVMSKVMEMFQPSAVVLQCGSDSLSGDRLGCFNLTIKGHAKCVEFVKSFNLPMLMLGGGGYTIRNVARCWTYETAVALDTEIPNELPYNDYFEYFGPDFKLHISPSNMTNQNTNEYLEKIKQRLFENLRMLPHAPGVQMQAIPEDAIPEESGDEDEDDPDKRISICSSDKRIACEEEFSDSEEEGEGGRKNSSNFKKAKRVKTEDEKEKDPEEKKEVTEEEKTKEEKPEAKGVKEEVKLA

[2] = species on record: Homo sapiens; assay: Selectivity index, ratio of IC50 for full length recombinant C-terminal FLAG-His-tagged human HDAC1 expressed in baculovirus infected Sf21 insect cells using RHK-K(Ac)-AMC peptide as substrate measured after 60 mins by fluorimetry analysis to IC50 for full length recombinant N-terminal GST-tagged …
Description: Selectivity index, ratio of IC50 for full length recombinant C-terminal FLAG-His-tagged human HDAC1 expressed in baculovirus infected Sf21 insect cells using RHK-K(Ac)-AMC peptide as substrate measured after 60 mins by fluorimetry analysis to IC50 for full length recombinant N-terminal GST-tagged human HDAC6 expressed in baculovirus infected Sf9 insect cells using RHK-K(Ac)-AMC peptide as substrate measured after 90 mins by fluorimetry analysis

[3] = Stability in CD1 mouse pooled liver microsomes assessed as parent compound remaining measured at 60 mins in presence of NADPH by LC-MS/MS analysis; format: ADME, Microsome; settings: CD1, mouse, pooled liver microsomes, read-out: Stabilty
[4] = Half life in CD1 mouse pooled liver microsomes assessed as parent compound remaining measured up to 60 mins in presence of NADPH by LC-MS/MS analysis; format: ADME, Microsome; settings: CD1, mouse, pooled liver microsomes
[5] = Stability in human pooled liver microsomes assessed as parent compound remaining measured at 60 mins in presence of NADPH by LC-MS/MS analysis; format: ADME, Microsome
[6] = Half life in human pooled liver microsomes assessed as parent compound remaining measured up to 60 mins in presence of NADPH by LC-MS/MS analysis; format: ADME, Microsome
[7] = target: T1, Protein deacetylase HDAC6 (Homo sapiens, UniProt Q9UBN7); assay: biochemical
T1 sequence (Q9UBN7 whole entry): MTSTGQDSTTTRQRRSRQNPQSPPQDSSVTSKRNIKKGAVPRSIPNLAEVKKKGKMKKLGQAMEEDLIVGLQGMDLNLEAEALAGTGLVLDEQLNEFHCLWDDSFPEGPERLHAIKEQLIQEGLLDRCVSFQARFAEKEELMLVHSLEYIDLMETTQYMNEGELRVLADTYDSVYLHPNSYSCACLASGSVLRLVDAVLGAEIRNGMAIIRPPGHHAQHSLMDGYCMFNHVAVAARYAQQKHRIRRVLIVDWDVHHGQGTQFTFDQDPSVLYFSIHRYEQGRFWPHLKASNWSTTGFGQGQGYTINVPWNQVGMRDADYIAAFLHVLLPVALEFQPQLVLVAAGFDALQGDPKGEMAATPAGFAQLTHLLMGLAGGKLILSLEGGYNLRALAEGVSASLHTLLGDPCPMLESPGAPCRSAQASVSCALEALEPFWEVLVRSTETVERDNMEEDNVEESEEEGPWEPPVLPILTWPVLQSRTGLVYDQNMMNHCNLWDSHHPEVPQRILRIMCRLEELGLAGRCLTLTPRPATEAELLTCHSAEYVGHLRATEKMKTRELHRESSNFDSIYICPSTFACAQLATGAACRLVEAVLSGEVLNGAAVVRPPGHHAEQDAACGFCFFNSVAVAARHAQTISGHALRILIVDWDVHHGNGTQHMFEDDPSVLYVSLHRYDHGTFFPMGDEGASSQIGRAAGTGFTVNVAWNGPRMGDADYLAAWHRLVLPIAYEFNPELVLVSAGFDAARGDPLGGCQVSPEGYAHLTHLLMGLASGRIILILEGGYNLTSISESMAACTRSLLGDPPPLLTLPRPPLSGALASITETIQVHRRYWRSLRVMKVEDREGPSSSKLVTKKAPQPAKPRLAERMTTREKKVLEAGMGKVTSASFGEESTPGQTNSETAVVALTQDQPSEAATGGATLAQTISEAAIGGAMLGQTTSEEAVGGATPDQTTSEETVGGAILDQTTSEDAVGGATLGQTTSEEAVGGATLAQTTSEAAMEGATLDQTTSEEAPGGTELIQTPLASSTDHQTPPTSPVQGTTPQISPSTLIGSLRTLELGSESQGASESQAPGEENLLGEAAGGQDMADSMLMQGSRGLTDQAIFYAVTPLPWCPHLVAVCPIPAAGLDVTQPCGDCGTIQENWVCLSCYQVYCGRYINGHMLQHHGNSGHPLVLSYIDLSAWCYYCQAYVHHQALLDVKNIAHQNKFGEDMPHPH
Description: Inhibition of full length recombinant N-terminal GST-tagged human HDAC6 expressed in baculovirus infected Sf9 insect cells using RHK-K(Ac)-AMC peptide as substrate measured after 90 mins by fluorimetry analysis

[8] = target: T2, Protein deacetylase HDAC6 (Mus musculus) (UniProt Q9Z2V5); assay: Inhibition of HDAC6 in mouse Neuro2a cells assessed as fold increase in ratio of acetylated alpha-tubulin to alpha tubulin at 1 uM incubated for overnight by Western blot analysis; format: cell-based; settings: time 12.0 hrs
T2 sequence (whole entry): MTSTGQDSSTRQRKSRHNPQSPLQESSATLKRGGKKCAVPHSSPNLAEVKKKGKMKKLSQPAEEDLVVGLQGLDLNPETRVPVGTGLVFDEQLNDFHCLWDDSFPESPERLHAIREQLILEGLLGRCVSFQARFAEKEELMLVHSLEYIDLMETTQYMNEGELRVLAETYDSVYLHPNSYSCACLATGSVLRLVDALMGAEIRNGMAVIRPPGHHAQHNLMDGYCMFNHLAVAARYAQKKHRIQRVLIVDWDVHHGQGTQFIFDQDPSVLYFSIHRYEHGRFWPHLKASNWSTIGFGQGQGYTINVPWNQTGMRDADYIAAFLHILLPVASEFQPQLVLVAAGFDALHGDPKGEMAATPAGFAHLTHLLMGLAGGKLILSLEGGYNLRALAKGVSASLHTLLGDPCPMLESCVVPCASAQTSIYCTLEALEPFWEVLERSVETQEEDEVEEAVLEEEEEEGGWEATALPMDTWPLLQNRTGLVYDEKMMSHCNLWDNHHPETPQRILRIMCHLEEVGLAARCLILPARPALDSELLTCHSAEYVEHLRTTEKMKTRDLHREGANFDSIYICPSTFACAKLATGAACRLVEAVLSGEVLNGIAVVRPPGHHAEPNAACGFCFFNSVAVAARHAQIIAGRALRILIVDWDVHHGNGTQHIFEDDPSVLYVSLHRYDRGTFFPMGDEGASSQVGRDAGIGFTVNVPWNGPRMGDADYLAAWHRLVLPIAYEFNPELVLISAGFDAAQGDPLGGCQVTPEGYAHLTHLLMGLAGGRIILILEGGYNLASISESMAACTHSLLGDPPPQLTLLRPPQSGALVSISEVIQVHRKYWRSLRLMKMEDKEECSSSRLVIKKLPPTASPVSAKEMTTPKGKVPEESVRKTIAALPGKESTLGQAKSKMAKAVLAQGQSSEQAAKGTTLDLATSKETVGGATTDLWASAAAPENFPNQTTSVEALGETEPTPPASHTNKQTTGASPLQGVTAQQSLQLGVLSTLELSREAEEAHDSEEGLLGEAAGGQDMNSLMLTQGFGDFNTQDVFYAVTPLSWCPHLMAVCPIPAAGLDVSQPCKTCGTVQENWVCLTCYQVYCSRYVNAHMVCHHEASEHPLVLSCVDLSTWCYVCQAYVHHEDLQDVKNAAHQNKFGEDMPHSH

[9] = Half life in liver microsomes; format: ADME, Microsome
[10] = Half life in hepatocytes; format: ADME, cell-based, Hepatocyte
[11] = target: T2, Protein deacetylase HDAC6 (Mus musculus); assay: Inhibition of HDAC6 in mouse Neuro2a cells assessed as fold increase in ratio of acetylated alpha-tubulin to alpha tubulin at 0.01 uM incubated for overnight by Western blot analysis; format: cell-based; settings: time 12.0 hrs
[12] = target: Histone deacetylase 2 (Homo sapiens, UniProt Q92769); assay: Inhibition of recombinant human HDAC2 using Ac-GAK(Ac)-AMC as substrate preincubated for 10 mins followed by substrate addition and measured after 30 mins by fluorescence-based assay
Histone deacetylase 2, sequence (Q92769 whole entry): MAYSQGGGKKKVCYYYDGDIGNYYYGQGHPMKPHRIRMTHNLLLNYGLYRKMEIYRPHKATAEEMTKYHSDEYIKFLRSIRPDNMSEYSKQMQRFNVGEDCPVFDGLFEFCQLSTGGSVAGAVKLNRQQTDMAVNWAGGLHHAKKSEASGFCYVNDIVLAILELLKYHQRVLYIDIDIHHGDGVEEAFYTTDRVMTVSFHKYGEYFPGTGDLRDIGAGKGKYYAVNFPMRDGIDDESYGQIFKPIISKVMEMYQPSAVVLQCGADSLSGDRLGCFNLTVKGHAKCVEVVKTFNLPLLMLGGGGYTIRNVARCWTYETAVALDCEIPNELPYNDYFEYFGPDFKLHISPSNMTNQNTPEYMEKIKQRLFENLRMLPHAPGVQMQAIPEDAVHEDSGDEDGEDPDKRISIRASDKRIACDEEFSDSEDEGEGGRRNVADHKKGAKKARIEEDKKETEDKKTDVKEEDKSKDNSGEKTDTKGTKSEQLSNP

[13] = target: Histone deacetylase 3 (Homo sapiens, UniProt O15379); assay: Inhibition of recombinant human HDAC3 using Ac-GAK(Ac)-AMC as substrate preincubated for 10 mins followed by substrate addition and measured after 30 mins by fluorescence-based assay
Histone deacetylase 3, sequence (O15379 whole entry): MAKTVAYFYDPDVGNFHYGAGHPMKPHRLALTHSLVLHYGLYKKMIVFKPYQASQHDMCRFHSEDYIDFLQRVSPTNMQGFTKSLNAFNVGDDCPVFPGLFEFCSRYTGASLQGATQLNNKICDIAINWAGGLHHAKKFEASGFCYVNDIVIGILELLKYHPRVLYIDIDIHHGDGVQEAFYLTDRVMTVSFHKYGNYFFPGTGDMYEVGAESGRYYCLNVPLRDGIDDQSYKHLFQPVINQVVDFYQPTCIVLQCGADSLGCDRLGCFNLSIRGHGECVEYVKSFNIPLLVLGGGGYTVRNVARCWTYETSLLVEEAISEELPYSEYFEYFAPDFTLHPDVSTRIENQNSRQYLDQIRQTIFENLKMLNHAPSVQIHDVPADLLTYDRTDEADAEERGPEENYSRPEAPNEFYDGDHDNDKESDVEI

[14] = target: Histone deacetylase 4 (Homo sapiens, UniProt P56524); assay: Inhibition of recombinant human HDAC4 using Boc-Lys(TFA)-AMC as substrate preincubated for 10 mins followed by substrate addition and measured after 30 mins by fluorescence-based assay
Histone deacetylase 4, sequence (P56524 whole entry): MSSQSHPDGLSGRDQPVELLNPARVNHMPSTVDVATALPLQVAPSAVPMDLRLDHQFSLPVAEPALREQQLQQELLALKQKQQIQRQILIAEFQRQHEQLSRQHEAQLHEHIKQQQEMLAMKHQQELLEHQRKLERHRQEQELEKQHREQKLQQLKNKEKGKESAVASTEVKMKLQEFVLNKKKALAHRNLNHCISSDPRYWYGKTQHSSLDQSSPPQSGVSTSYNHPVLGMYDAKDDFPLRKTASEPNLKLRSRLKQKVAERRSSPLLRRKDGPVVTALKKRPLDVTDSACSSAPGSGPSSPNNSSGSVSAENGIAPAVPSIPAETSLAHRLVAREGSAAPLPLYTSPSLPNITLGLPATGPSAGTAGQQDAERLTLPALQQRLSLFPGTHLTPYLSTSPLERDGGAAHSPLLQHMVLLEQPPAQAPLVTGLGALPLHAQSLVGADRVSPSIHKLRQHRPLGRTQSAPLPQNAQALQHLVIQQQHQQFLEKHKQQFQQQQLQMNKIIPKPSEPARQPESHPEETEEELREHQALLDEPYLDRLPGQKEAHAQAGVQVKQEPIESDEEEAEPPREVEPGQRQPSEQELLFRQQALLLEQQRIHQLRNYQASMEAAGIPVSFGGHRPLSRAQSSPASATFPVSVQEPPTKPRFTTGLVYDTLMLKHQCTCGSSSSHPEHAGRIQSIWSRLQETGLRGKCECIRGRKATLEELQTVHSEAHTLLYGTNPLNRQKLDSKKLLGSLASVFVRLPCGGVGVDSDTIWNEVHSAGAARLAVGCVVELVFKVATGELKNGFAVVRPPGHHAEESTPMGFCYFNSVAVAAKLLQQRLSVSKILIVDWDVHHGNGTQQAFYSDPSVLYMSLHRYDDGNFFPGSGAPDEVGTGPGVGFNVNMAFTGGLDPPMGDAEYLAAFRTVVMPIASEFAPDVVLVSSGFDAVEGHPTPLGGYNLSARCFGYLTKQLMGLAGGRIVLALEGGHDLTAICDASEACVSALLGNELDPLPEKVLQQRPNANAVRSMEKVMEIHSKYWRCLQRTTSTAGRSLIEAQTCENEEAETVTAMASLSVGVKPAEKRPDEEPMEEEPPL

[15] = target: Histone deacetylase 5 (Homo sapiens, UniProt Q9UQL6); assay: Inhibition of recombinant human HDAC5 using Boc-Lys(TFA)-AMC as substrate preincubated for 10 mins followed by substrate addition and measured after 30 mins by fluorescence-based assay
Histone deacetylase 5, sequence (Q9UQL6 whole entry): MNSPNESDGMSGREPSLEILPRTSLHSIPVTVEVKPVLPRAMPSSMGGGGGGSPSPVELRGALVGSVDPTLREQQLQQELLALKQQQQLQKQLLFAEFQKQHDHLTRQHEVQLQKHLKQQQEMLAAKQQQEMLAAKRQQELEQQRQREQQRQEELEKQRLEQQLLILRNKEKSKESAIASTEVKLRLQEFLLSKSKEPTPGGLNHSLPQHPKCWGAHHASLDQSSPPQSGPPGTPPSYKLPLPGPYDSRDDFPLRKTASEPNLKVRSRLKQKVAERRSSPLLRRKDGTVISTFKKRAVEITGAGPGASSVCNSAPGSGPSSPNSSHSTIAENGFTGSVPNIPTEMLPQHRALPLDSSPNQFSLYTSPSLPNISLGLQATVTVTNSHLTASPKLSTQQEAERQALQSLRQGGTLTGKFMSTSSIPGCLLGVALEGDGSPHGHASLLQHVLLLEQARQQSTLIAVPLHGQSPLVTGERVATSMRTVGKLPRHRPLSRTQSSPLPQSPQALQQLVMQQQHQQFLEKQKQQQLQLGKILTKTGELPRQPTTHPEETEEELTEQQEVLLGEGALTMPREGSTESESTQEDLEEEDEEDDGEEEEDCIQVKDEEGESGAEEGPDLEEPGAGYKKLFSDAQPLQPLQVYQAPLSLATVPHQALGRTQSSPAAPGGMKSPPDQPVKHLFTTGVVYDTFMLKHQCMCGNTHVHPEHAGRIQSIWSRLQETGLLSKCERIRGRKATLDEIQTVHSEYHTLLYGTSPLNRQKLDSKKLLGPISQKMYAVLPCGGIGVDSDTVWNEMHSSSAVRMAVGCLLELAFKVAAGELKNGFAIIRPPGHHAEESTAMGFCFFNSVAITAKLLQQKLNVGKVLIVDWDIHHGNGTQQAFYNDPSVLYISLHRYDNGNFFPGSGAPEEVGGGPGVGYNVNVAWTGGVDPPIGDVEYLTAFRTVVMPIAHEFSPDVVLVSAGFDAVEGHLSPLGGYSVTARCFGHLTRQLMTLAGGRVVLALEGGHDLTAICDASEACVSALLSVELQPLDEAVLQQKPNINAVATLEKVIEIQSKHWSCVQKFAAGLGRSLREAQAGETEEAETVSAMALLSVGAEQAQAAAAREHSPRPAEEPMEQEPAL

[16] = target: Histone deacetylase 9 (Homo sapiens, UniProt Q9UKV0); assay: Inhibition of recombinant human HDAC9 using Boc-Lys(TFA)-AMC as substrate preincubated for 10 mins followed by substrate addition and measured after 30 mins by fluorescence-based assay
Histone deacetylase 9, sequence (Q9UKV0 whole entry): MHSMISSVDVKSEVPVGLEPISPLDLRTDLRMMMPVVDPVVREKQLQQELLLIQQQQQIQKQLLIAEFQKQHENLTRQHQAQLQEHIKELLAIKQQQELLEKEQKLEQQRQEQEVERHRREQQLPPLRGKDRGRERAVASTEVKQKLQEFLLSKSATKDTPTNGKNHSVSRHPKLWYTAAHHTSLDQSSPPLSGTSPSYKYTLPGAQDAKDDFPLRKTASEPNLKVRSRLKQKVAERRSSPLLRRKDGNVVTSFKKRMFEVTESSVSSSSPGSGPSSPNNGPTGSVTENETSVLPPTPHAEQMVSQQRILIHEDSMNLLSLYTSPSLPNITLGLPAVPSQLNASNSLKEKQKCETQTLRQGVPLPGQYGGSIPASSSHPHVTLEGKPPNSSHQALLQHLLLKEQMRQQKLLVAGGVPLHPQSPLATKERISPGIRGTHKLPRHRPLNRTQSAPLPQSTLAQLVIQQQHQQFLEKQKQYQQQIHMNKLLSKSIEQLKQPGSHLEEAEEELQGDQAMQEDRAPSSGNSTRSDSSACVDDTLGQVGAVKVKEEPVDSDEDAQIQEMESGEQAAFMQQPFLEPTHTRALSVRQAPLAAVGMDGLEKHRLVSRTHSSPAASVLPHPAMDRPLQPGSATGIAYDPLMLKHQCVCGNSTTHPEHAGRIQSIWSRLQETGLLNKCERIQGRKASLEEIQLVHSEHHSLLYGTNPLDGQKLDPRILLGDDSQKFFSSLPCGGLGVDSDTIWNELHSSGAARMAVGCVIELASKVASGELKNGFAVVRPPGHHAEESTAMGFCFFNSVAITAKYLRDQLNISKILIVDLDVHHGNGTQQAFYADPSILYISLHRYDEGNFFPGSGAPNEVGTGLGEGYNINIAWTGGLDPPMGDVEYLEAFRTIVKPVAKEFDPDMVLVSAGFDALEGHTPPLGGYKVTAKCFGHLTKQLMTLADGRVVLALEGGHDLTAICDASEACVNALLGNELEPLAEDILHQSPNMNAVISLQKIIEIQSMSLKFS

[17] = target: T2, Protein deacetylase HDAC6 (Mus musculus); assay: In vivo inhibition of HDAC6 in wild type mouse assessed as increase in alpha-tubulin acetylation in sciatic nerve tissue at 20 mg/kg, ip administered for 12 hrs by immunoblot analysis relative to control; format: functional, organism-based; set-up: scale not given: the % may be the effect or the level left
[18] = target: T3, Histone deacetylase 8 (Homo sapiens, UniProt Q9BY41)
T3 sequence (Q9BY41 whole entry): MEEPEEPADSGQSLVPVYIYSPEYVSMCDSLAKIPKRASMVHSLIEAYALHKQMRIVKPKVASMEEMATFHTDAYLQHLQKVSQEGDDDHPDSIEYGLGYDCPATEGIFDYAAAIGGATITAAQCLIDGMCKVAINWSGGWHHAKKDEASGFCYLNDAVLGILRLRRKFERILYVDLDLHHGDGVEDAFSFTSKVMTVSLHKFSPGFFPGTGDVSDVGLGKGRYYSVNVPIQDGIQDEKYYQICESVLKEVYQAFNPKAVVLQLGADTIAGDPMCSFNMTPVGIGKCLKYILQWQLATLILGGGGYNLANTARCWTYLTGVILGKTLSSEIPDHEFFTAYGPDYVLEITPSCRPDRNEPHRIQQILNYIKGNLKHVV
Description: Inhibition of recombinant human HDAC8 using Boc-Lys(TFA)-AMC as substrate preincubated for 10 mins followed by substrate addition and measured after 30 mins by fluorescence-based assay

[19] = target: T4, Histone deacetylase 7 (Homo sapiens, UniProt Q8WUI4)
T4 sequence (Q8WUI4 whole entry): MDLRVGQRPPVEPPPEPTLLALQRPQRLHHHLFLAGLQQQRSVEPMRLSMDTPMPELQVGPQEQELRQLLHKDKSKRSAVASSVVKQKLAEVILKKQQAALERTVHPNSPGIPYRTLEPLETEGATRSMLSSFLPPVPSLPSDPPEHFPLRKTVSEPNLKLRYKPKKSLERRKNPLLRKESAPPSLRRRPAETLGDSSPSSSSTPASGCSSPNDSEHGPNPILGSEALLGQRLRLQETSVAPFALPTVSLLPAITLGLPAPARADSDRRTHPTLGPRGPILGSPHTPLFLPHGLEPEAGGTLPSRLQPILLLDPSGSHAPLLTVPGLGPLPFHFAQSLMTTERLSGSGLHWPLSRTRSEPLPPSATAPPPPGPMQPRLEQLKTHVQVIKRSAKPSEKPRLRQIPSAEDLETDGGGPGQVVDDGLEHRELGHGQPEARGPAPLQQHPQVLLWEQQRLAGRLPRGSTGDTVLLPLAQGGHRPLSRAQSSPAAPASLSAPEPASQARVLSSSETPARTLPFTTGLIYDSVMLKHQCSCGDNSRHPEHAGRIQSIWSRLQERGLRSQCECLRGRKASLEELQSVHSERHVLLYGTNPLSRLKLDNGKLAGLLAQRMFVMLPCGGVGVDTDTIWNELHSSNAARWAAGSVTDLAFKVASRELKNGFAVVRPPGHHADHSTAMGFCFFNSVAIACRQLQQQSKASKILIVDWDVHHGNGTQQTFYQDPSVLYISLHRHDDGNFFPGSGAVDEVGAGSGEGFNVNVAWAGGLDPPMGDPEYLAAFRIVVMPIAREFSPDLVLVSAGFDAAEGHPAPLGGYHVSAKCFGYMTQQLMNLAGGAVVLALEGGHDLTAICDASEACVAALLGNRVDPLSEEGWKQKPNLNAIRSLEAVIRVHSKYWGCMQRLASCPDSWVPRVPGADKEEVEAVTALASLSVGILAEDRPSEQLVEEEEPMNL
Description: Inhibition of recombinant human HDAC7 using Boc-Lys(TFA)-AMC as substrate preincubated for 10 mins followed by substrate addition and measured after 30 mins by fluorescence-based assay

IC50 [1]: 15 nM
remaining at 1 h [3]: 34.1%
half-life [4]: 40.4 min
remaining at 1 h ([5]; pooled liver microsomes, read-out: Stabilty): 73%
half-life ([6]; pooled liver microsomes): 182 min
IC50 [7]: 11000 nM
SMILES: O=C(NO)c1ccc(CN2CCCc3ccccc32)cc1
Ratio IC50 [2]: 733

fold change (FC) [8]: 1
half-life [9]: < 30 min
half-life [10]: < 30 min
fold change (FC) [11]: 1
remaining at 1 h [3]: 27.3%
half-life [4]: 31.9 min
Stabilty ([5]; microsomes, 1 h): 42.6%
t1/2 ([6]; microsomes, 1 h): 483 min
IC50 [12]: 282 nM
IC50 [13]: 1270 nM
IC50 [14]: 2140 nM
IC50 [15]: 1480 nM
IC50 [16]: 3400 nM
Activity [17]: 125%
IC50 [18]: 3060 nM
IC50 [19]: 511 nM
SMILES: O=C(NO)c1ccc(CN2CCCc3cc(Cl)ccc32)cc1
